The results in this text go back to patent publication US20070203066A1, “Compositions and methods for inhibiting cellular proliferation” (priority 2005, published 2007).

Where two headings read alike, the source gives them in different places. Primed or numbered codes have the meaning given here. No end group written: not given here. Ida(3) = iminodiacetic acid linker, Lys side-chain amines bound to its two carboxyl groups; Ida″ = iminodiacetic acid linker bound to the Lys side-chain amine, forming a dimer

The subject of the assay is HUVECs. Format: cell-based. The gist of the method: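 Proliferation read-out: BrdU incorporation after 48-hour culture (37 ° C, 5% CO2) with graded peptide doses. Cells were in EBM with 2% FCS at 5,000 per well, driven by VEGF (5 ng/ml) or bFGF (10 ng/ml), added after ≥12-hour attachment.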
Setting [1] is: HUVEC proliferation, bFGF at 10 ng/ml or VEGF at 5 ng/ml, 48 hours, BrdU incorporation, read-out: IC50 on HUVECs.

Broadly, the IC50 is the concentration that gives 50% inhibition.

For “474 (Ac-PRRRMQAVAIYFK(Ida(3)); not fully specified (C-terminus); also: homodimer via Ida linker on Lys13 side chain) [compound 474]”, the half-maximal inhibitory concentration (IC50) under setting [1] fell in the range of 10 to 30 µM.

Turning to “475 (Ac-PRRRNQAVAIYFK(Ida(3)); not fully specified (C-terminus); also: homodimer via Ida linker on Lys13 side chain) [compound 475]”, the IC50 under setting [1] was less than 10 µM.

With “476 (Ac-PRRRPQAVAIYFK(Ida(3)); not fully specified (C-terminus); also: homodimer via Ida linker on Lys13 side chain) [compound 476]”, the 50% inhibitory concentration (IC50) under setting [1] was less than 10 µM.

In the case of “477 (Ac-PRRRSQAVAIYFK(Ida(3)); not fully specified (C-terminus); also: homodimer via Ida linker on Lys13 side chain) [compound 477]”, the IC50 under setting [1] fell in the range of 10 to 30 µM.

“478 (Ac-PRRRTQAVAIYFK(Ida(3)); not fully specified (C-terminus); also: homodimer via Ida linker on Lys13 side chain) [compound 478]”: the half-maximal inhibitory concentration (IC50) under setting [1] is 10 to 30 µM.

With “479 (Ac-PRRRVQAVAIYFK(Ida(3)); not fully specified (C-terminus); also: homodimer via Ida linker on Lys13 side chain) [compound 479]”, the IC50 under setting [1] lay in the range of 10 to 30 µM.

On to “480 (Ac-PRRRWQAVAIYFK(Ida(3)); not fully specified (C-terminus); also: homodimer via Ida linker on Lys13 side chain) [compound 480]”, for which the half-maximal inhibitory concentration (IC50) under setting [1] lay within 10 to 30 µM.

With “481 (Ac-PRRRYQAVAIYFK; not fully specified (residue 13, C-terminus); also: homodimer via Ida linker on Lys13 side chain) [compound 481]”, the half-inhibitory concentration (IC50) under setting [1] lay within 10 to 30 µM.

On to “482 (Ac-PRRRRQAVAIKF; not fully specified (residue 11); also: homodimer via Ida linker on Lys11 side chain) [compound 482]”, for which, under setting [1], the IC50 was less than 10 µM.

Take “483 (Ac-QRRRRQAVAIKF; not fully specified (residue 11); also: homodimer via Ida linker on Lys11 side chain) [compound 483]”: the 50% inhibitory concentration (IC50) under setting [1] was less than 10 µM.

For the compound “484 (Ac-ARRRNQAVAIKF; not fully specified (residue 11); also: homodimer: Lys11 side chain bound to Ida linker (Boc on Ida N)) [compound 484]”, the half-inhibitory concentration (IC50) under setting [1] is less than 10 µM.

Turning to “485 (Ac-ARRRPQAVAIKF; not fully specified (residue 11); also: homodimer: Lys11 side chain bound to Ida linker (Boc on Ida N)) [compound 485]”, the IC50 under setting [1] is less than 10 µM.

For the compound “486 (Ac-ARRRRQSVAIKF; not fully specified (residue 11); also: homodimer: Lys11 side chain bound to Ida linker (Boc on Ida N)) [compound 486]”, under setting [1], the half-maximal inhibitory concentration (IC50) is less than 10 µM.

As to “487 (Ac-ARRRRQPVAIKF; not fully specified (residue 11); also: homodimer: Lys11 side chain bound to Ida linker (Boc on Ida N)) [compound 487]”, the 50% inhibitory concentration (IC50) under setting [1] lay in the range of 10 to 30 µM.

In the case of “488 (Ac-PRRRNQAVAIKF; not fully specified (residue 11); also: homodimer via Ida linker on Lys11 side chain) [compound 488]”, the IC50 under setting [1] lay within 10 to 30 µM.

In the case of “489 (Ac-PRRRPQAVAIK(Ida″)F; also: homodimer via Ida linker on Lys11 side chain) [compound 489]”, the IC50 under setting [1] was less than 10 µM.

With “490 (Ac-PRRRRQSVAIK(Ida″)F; also: homodimer via Ida linker on Lys11 side chain) [compound 490]”, the concentration for half-maximal inhibition (IC50) under setting [1] lay in the range of 10 to 30 µM.

As to “491 (Ac-PRRRRQPVAIK(Ida″)F; also: homodimer via Ida linker on Lys11 side chain) [compound 491]”, the half-maximal inhibitory concentration (IC50) under setting [1] was in the range of 10 to 30 µM.

With “492 (Ac-ARRRNQSVAIKF; not fully specified (residue 11); also: homodimer: Lys11 side chain bound to Ida linker (Boc on Ida N)) [compound 492]”, the IC50 under setting [1] was in the range of 10 to 30 µM.

As to “493 (Ac-ARRRNQPVAIKF; not fully specified (residue 11); also: homodimer: Lys11 side chain bound to Ida linker (Boc on Ida N)) [compound 493]”, under setting [1], the half-maximal inhibitory concentration (IC50) is more than 30 µM.

For “494 (Ac-PRNRRQAVAIYFK(Ida″); not fully specified (C-terminus); also: homodimer via Ida linker on Lys13 side chain) [compound 494]”, the IC50 under setting [1] is 10 to 30 µM.

“495 (Ac-PRERRQAVAIYFK(Ida″); not fully specified (C-terminus); also: homodimer via Ida linker on Lys13 side chain) [compound 495]”: the IC50 under setting [1] was more than 30 µM.

Regarding “496 (Ac-PRHRRQAVAIYFK(Ida″); not fully specified (C-terminus); also: homodimer via Ida linker on Lys13 side chain) [compound 496]”, the half-inhibitory concentration (IC50) under setting [1] lay within 10 to 30 µM.

“497 (Ac-PRLRRQAVAIYFK(Ida″); not fully specified (C-terminus); also: homodimer via Ida linker on Lys13 side chain) [compound 497]”: the concentration for half-maximal inhibition (IC50) under setting [1] was in the range of 10 to 30 µM.

As for “498 (Ac-PRSRRQAVAIYFK(Ida″); not fully specified (C-terminus); also: homodimer via Ida linker on Lys13 side chain) [compound 498]”, the IC50 under setting [1] was less than 10 µM.

On to “499 (Ac-PRYRRQAVAIYFK(Ida″); not fully specified (C-terminus); also: homodimer via Ida linker on Lys13 side chain) [compound 499]”, for which the 50% inhibitory concentration (IC50) under setting [1] was less than 10 µM.

Take “500 (Ac-PRRNRQAVAIYFK(Ida″); not fully specified (C-terminus); also: homodimer via Ida linker on Lys13 side chain) [compound 500]”: the IC50 under setting [1] was less than 10 µM.

Take “501 (Ac-PRRERQAVAIYFK; not fully specified (residue 13, C-terminus); also: homodimer via Ida linker on Lys13 side chain) [compound 501]”: under setting [1], the IC50 is less than 10 µM.

For “502 (Ac-PRRHRQAVAIYFK; not fully specified (residue 13, C-terminus); also: homodimer via Ida linker on Lys13 side chain) [compound 502]”, the 50% inhibitory concentration (IC50) under setting [1] was in the range of 10 to 30 µM.

With “503 (Ac-PRRLRQAVAIYFK; not fully specified (residue 13, C-terminus); also: homodimer via Ida linker on Lys13 side chain) [compound 503]”, under setting [1], the IC50 was less than 10 µM.

Consider “505 (Ac-PRRYRQAVAIYFK; not fully specified (residue 13, C-terminus); also: homodimer via Ida linker on Lys13 side chain) [compound 505]”, for which, under setting [1], the IC50 is less than 10 µM.

In the case of “506 (Ac-ARRRRQRVAIYFKGGRGDSP; also: homodimer via Ida linker at Lys13 side chain) [compound 506]”, under setting [1], the half-inhibitory concentration (IC50) is less than 10 µM.

“507 (Ac-RGDSPGGARRRRQRVAIYFK; also: homodimer via Ida linker on Lys20 side chain) [compound 507]”: under setting [1], the 50% inhibitory concentration (IC50) is less than 10 µM.

“508 (Ac-CNGRCGGARRRRQRVAIYFK; not fully specified (C-terminus); cysteine pairing not given here; also: homodimer via Ida linker at Lys20 side chain) [compound 508]”: under setting [1], the half-maximal inhibitory concentration (IC50) is less than 10 µM.

For the compound “509 (Ac-ARRRRARVAIYFK; not fully specified (C-terminus); also: homodimer via Ida linker at Lys13 side chain) [compound 509]”, the IC50 under setting [1] was less than 10 µM.

On to “510 (Ac-ARRRRERVAIYFK; not fully specified (C-terminus); also: homodimer via Ida linker at Lys13 side chain) [compound 510]”, for which the 50% inhibitory concentration (IC50) under setting [1] was less than 10 µM.

Take “511 (Ac-ARRRRFRVAIYFK; not fully specified (C-terminus); also: homodimer via Ida linker at Lys13 side chain) [compound 511]”: the 50% inhibitory concentration (IC50) under setting [1] is 10 to 30 µM.

Turning to “512 (Ac-ARRRRGRVAIYFK; not fully specified (C-terminus); also: homodimer via Ida linker at Lys13 side chain) [compound 512]”, the 50% inhibitory concentration (IC50) under setting [1] is less than 10 µM.

As for “513 (Ac-ARRRRIRVAIYFK; not fully specified (C-terminus); also: homodimer via Ida linker at Lys13 side chain) [compound 513]”, under setting [1], the IC50 lay in the range of 10 to 30 µM.

With `CC[C@H](C)[C@H](NC(=O)[C@H](CCCNC(=N)N)NC(=O)[C@@H](NC(=O)[C@H](CCCNC(=N)N)NC(=O)[C@H](CCC(N)=O)NC(=O)[C@H](CCCNC(=N)N)NC(=O)[C@H](CCCNC(=N)N)NC(=O)[C@H](CCCNC(=N)N)NC(=O)[C@H](CCCNC(=N)N)NC(=O)[C@H](CCCNC(=N)N)NC(C)=O)C(C)C)C(=O)N[C@H](C(=O)N[C@@H](Cc1ccccc1)C(=O)N[C@@H](CCCCNC(=O)CN(CC(=O)NCCCC[C@H](NC(=O)[C@H](Cc1ccccc1)NC(=O)[C@@H](NC(=O)[C@@H](NC(=O)[C@H](CCCNC(=N)N)NC(=O)[C@@H](NC(=O)[C@H](CCCNC(=N)N)NC(=O)[C@H](CCC(N)=O)NC(=O)[C@H](CCCNC(=N)N)NC(=O)[C@H](CCCNC(=N)N)NC(=O)[C@H](CCCNC(=N)N)NC(=O)[C@H](CCCNC(=N)N)NC(=O)[C@H](CCCNC(=N)N)NC(C)=O)C(C)C)[C@@H](C)CC)[C@@H](C)CC)C(N)=O)C(=O)CCNC(=O)OC(C)(C)C)C(N)=O)[C@@H](C)CC` [Peptide 167], the concentration for half-maximal inhibition (IC50) (48 h) is less than 10 µM.
